Data as given in patent US11530210B2, “Substituted heteroaromatic pyrazolo-pyridines and their use as GLUN2B receptor modulators” (JANSSEN PHARMACEUTICA NV, priority 2019, dated 2022).
pIC50: −log10 of the molar value. Structures can show the parent of a compound that is named as a salt.

The compounds below were run against T1, human GluN1/GluN2B NMDA receptors (Homo sapiens, UniProt Q13224) (assay: Calcium flux (FLIPR) assay on cloned human NR1/GluN2B ion channels expressed in mammalian cells (standard and HTS variants)). Conditions: cells expressing human GluN1/GluN2B, glutamate and glycine co-agonists.
T1 construct: expressed in transfected cells
Assay type: cell-based
Procedure: Effects of Test Articles on Cloned Human NR1/GuN2B Ion Channels Expressed in Mammalian Cells
NMDA receptors are ion channels that are highly permeable to Ca^2+ ions, rendering it possible to monitor NMDA receptor function using cell-based calcium flux assay. In this assay, co-agonists glutamate and glycine are added to cells heterologously expressing human GluN1/GluN2B NMDA receptors to initiate cellular Ca^2+ influx. The time course of the changes in intracellular calcium is measured using a fluorescent dye and a FLIPR (Fluorometric Imaging Plate Reader) device.
Twenty-four hours before measurements, the expression of the NMDA receptors in the stable cell line is induced with Tet-On inducible system in the presence of a non-selective NMDA receptor blocker. On the day of the experiment, cell culture media is carefully washed, and the cells are loaded with Calcium 5 Dye Kit (Molecular Devices) in dye loading buffer containing 137 mM NaCl, 4 mM KCl, 2 mM CaCl2, 0.5 mM MgCl2 (standard assay) or 1.5 mM MgCl2 (HTS assay), 10 mM HEPES and 5 mM D-glucose; pH 7.4. After 1 h incubation at the room temperature, the dye is washed away with the assay buffer (137 mM NaCl (standard assay) or 150 mM (HTS assay), 4 mM KCl (standard assay) or 3 mM (HTS assay), 2 mM CaCl2), 0.01 mM EDTA, 10 mM HEPES and 5 mM D-glucose; pH 7.4) In the FLIPR TETRA reader, various concentrations of the test compounds are added to the cells for 5 min while fluorescence is monitored to detect potential agonist activity. Next, co-agonists, glutamate and glycine are added for another 5 minutes. The concentration of glutamate corresponding to ˜EC40 (standard assay) or EC40 (HTS assay) is used to maximize the assay's signal window and ability to detect NMDA receptor antagonists and negative allosteric modulators. A saturating concentration (10 μM) of glycine is also present in the assay. A non-selective NMDA receptor antagonist, (+)MK-801 is used as a positive control for antagonist activity. The fluorescent signal in the presence of test compounds is quantified and normalized to the signal defined by the appropriate control wells.

T1 sequence (Q13224 27-1484, other chains not shown): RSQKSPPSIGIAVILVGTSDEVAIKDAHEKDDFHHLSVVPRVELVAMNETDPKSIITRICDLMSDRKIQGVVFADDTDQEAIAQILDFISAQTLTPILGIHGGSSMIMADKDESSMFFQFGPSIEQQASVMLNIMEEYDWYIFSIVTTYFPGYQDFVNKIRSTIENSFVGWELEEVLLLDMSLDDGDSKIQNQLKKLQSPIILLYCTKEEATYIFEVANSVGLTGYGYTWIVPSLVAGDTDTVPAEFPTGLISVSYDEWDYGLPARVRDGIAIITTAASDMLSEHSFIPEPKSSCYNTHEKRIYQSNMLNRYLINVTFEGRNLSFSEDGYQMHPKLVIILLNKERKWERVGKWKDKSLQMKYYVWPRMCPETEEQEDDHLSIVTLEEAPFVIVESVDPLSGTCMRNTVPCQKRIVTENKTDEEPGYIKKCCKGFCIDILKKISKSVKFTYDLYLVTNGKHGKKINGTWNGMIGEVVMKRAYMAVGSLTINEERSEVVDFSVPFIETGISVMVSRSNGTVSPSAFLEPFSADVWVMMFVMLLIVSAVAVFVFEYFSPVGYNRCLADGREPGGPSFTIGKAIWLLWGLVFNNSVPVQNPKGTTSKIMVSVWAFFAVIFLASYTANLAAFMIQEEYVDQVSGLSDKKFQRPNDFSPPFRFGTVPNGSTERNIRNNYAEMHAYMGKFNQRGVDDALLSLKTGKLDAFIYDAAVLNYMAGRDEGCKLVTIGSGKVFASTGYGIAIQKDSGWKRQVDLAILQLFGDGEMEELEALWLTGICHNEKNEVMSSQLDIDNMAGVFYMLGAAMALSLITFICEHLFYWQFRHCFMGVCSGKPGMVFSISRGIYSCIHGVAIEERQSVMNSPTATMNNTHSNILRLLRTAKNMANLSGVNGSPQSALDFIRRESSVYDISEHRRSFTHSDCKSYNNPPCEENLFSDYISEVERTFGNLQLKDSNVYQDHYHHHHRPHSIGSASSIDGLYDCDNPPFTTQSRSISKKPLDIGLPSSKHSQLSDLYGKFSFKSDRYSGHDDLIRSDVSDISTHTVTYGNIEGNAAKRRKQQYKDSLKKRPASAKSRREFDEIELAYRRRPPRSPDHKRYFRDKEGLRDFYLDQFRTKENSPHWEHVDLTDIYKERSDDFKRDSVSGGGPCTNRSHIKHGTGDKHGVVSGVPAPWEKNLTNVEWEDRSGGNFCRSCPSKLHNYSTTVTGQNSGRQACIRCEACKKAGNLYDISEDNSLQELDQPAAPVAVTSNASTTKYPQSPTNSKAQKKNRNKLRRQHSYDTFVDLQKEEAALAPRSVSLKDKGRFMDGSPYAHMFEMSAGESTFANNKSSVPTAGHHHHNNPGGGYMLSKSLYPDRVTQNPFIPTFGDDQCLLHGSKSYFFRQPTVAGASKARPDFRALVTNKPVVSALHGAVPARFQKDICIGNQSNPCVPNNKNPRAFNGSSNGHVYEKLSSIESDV

Row | SMILES | pIC50
1 | FC(F)(F)c1cccc(-c2cnc3cnn(Cc4ncccn4)c3c2)c1 [Example 1, 1-(Pyrimidin-2-ylmethyl)-6-[3-(trifluoromethyl)phenyl]pyrazolo[4,3-b]pyridine] | 6.10
2 | Cc1ncc(Cn2ncc3ncc(-c4cccc(C(F)(F)F)c4)cc32)cn1 [Example 4, 1-[(2-Methylpyrimidin-5-yl)methyl]-6-[3-(trifluoromethyl)phenyl]pyrazolo[4,3-b]pyridine trifluoroacetate salt] | 5.33
3 | FC(F)(F)c1cccc(-c2cnc3cnn(Cc4ccncn4)c3c2)c1 [Example 6, 1-(Pyrimidin-4-ylmethyl)-6-[3-(trifluoromethyl)phenyl]pyrazolo[4,3-b]pyridine hydrochloride salt] | 6.09
4 | FC(F)(F)c1cccc(-c2cnc3cnn(Cc4nnco4)c3c2)c1 [Example 7, 2-[[6-[3-(Trifluoromethyl)phenyl]pyrazolo[4,3-b]pyridin-1-yl]methyl]-1,3,4-oxadiazole] | 6.13
5 | Cc1nnc(Cn2ncc3ncc(-c4ccc(F)c(C(F)F)c4)cc32)[nH]1 [Example 13, 6-[3-(Difluoromethyl)-4-fluoro-phenyl]-1-[(5-methyl-4H-1,2,4-triazol-3-yl)methyl]pyrazolo[4,3-b]pyridine] | 5.71
6 | Cc1cc(Cn2ncc3ncc(-c4cccc(C(F)(F)F)c4)cc32)[nH]n1 [Example 14, 1-[(3-Methyl-1H-pyrazol-5-yl)methyl]-6-[3-(trifluoromethyl)phenyl]pyrazolo[4,3-b]pyridine] | 5.32
7 | CNc1nnc(Cn2ncc3ncc(-c4ccc(F)c(OC(F)F)c4)cc32)s1 [Example 15, 5-[[6-[3-(Difluoromethoxy)-4-fluoro-phenyl]pyrazolo[4,3-b]pyridin-1-yl]methyl]-N-methyl-1,3,4-thiadiazol-2-amine] | < 5.52
8 | Nc1nnc(Cn2ncc3ncc(-c4ccc(F)c(C(F)F)c4)cc32)s1 [Example 16, 5-[[6-[3-(difluoromethyl)-4-fluoro-phenyl]pyrazolo[4,3-b]pyridin-1-yl]methyl]-1,3,4-thiadiazol-2-amine] | 5.98
9 | Nc1nnc(Cn2ncc3ncc(-c4ccc(F)c(OC(F)F)c4)cc32)s1 [Example 18, 5-[[6-[3-(Difluoromethoxy)-4-fluoro-phenyl]pyrazolo[4,3-b]pyridin-1-yl]methyl]-1,3,4-thiadiazol-2-amine] | 5.45
10 | CC(=O)Nc1nnc(Cn2ncc3ncc(-c4ccc(F)c(OC(F)F)c4)cc32)s1 [Example 19, N-(5-((6-(3-(Difluoromethoxy)-4-fluorophenyl)-1H-pyrazolo[4,3-b]pyridin-1-yl)methyl)-1,3,4-thiadiazol-2-yl)acetamide] | < 5.52
11 | FC(F)(F)c1cccc(-c2cnc3cnn(Cc4ncon4)c3c2)c1 [Example 20, 3-[[6-[3-(Trifluoromethyl)phenyl]pyrazolo[4,3-b]pyridin-1-yl]methyl]-1,2,4-oxadiazole] | 6.12
12 | FC(F)(F)c1cccc(-c2cnc3cnn(Cc4ccccc4)c3c2)c1 [Example 21, 1-Benzyl-6-[3-(trifluoromethyl)phenyl]pyrazolo[4,3-b]pyridine hydrochloride salt] | 5.48
13 | Fc1cccc(Cn2ncc3ncc(-c4cccc(C(F)(F)F)c4)cc32)c1 [Example 22, 1-[(3-Fluorophenyl)methyl]-6-[3-(trifluoromethyl)phenyl]pyrazolo[4,3-b]pyridine hydrochloride salt] | 5.74
14 | COc1ccc(Cn2ncc3ncc(-c4cccc(C(F)(F)F)c4)cc32)cc1 [Example 24, 1-[(4-Methoxyphenyl)methyl]-6-[3-(trifluoromethyl)phenyl]pyrazolo[4,3-b]pyridine hydrochloride salt] | 5.10
15 | FC(F)(F)c1ccc(Cn2ncc3ncc(-c4cccc(C(F)(F)F)c4)cc32)cc1 [Example 25, 6-[3-(Trifluoromethyl)phenyl]-1-[[4-(trifluoromethyl)phenyl]methyl]pyrazolo[4,3-b]pyridine hydrochloride salt] | < 5.00
16 | Fc1cc(F)cc(Cn2ncc3ncc(-c4ccc(F)c(OC(F)F)c4)cc32)c1 [Example 30, 6-[3-(Difluoromethoxy)-4-fluoro-phenyl]-1-[(3,5-difluorophenyl)methyl]pyrazolo[4,3-b]pyridine] | 6.27
17 | Cc1ccc(Cn2ncc3ncc(-c4ccc(F)c(C(F)F)c4)cc32)s1 [Example 32, 6-[3-(Difluoromethyl)-4-fluoro-phenyl]-1-[(5-methyl-2-thienyl)methyl]pyrazolo[4,3-b]pyridine] | < 5.52
18 | Fc1ccc(Cn2ncc3ncc(-c4ccc(F)c(C(F)F)c4)cc32)s1 [Example 33, 6-(3-(Difluoromethyl)-4-fluorophenyl)-1-((5-fluorothiophen-2-yl)methyl)-1H-pyrazolo[4,3-b]pyridine] | 5.99
19 | CC(F)(F)c1cccc(-c2cnc3cnn(Cc4cn[nH]c4)c3c2)c1 [Example 35, 6-[3-(1,1-Difluoroethyl)phenyl]-1-(1H-pyrazol-4-ylmethyl)pyrazolo[4,3-b]pyridine] | 6.19
20 | Cn1cnc(Cn2ncc3ncc(-c4cccc(C(F)(F)F)c4)cc32)c1 [Example 36, 1-[(1-Methylimidazol-4-yl)methyl]-6-[3-(trifluoromethyl)phenyl]pyrazolo[4,3-b]pyridine] | 6.18

Now those with a higher pIC50, led by results:

Row | pIC50 | SMILES
21 | 6.48 | FC(F)(F)c1cccc(-c2cnc3cnn(Cc4cncc(Br)c4)c3c2)c1 [Example 2, 1-[(5-Bromo-3-pyridyl)methyl]-6-[3-(trifluoromethyl)phenyl]pyrazolo[4,3-b]pyridine]
22 | 6.32 | N#Cc1cncc(Cn2ncc3ncc(-c4cccc(C(F)(F)F)c4)cc32)c1 [Example 3, 5-[[6-[3-(Trifluoromethyl)phenyl]pyrazolo[4,3-b]pyridin-1-yl]methyl]pyridine-3-carbonitrile]
23 | 6.63 | FC(F)(F)c1cccc(-c2cnc3cnn(Cc4cnccn4)c3c2)c1 [Example 5, 1-(Pyrazin-2-ylmethyl)-6-[3-(trifluoromethyl)phenyl]pyrazolo[4,3-b]pyridine dihydrochloride salt]
24 | 7.11 | Cc1cnc(Cn2ncc3ncc(-c4ccc(F)c(C)c4F)cc32)o1 [Example 9, 2-[[6-(2,4-Difluoro-3-methyl-phenyl)pyrazolo[4,3-b]pyridin-1-yl]methyl]-5-methyl-oxazole]
25 | 6.31 | Fc1ccc(-c2cnc3cnn(Cc4cn[nH]c4)c3c2)cc1OC(F)F [Example 11, 6-[3-(Difluoromethoxy)-4-fluoro-phenyl]-1-(1H-pyrazol-4-ylmethyl)pyrazolo[4,3-b]pyridine]
26 | 7.19 | Oc1nnc(Cn2ncc3ncc(-c4ccc(F)c(C(F)F)c4)cc32)s1 [Example 17, 5-[[6-[3-(Difluoromethyl)-4-fluoro-phenyl]pyrazolo[4,3-b]pyridin-1-yl]methyl]-1,3,4-thiadiazol-2-ol]
27 | 6.40 | N#Cc1cccc(Cn2ncc3ncc(-c4cccc(C(F)(F)F)c4)cc32)c1 [Example 23, 3-[[6-[3-(Trifluoromethyl)phenyl]pyrazolo[4,3-b]pyridin-1-yl]methyl]benzonitrile]
28 | 7.21 | N#Cc1cccc(Cn2ncc3ncc(-c4ccc(F)c(C(F)F)c4)cc32)c1 [Example 26, 3-[[6-[3-(Difluoromethyl)-4-fluoro-phenyl]pyrazolo[4,3-b]pyridin-1-yl]methyl]benzonitrile]
29 | 6.40 | Fc1cc(F)cc(Cn2ncc3ncc(-c4ccc(F)c(C(F)F)c4)cc32)c1 [Example 27, 6-[3-(Difluoromethyl)-4-fluoro-phenyl]-1-[(3,5-difluorophenyl)methyl]pyrazolo[4,3-b]pyridine]
30 | 6.90 | N#Cc1cc(F)cc(Cn2ncc3ncc(-c4ccc(F)c(C(F)F)c4)cc32)c1 [Example 28, 3-[[6-[3-(Difluoromethyl)-4-fluoro-phenyl]pyrazolo[4,3-b]pyridin-1-yl]methyl]-5-fluoro-benzonitrile]
31 | 7.19 | N#Cc1cccc(Cn2ncc3ncc(-c4ccc(F)c(OC(F)F)c4)cc32)c1 [Example 29, 3-[[6-[3-(Difluoromethoxy)-4-fluoro-phenyl]pyrazolo[4,3-b]pyridin-1-yl]methyl]benzonitrile]
32 | 6.41 | N#Cc1cc(F)cc(Cn2ncc3ncc(-c4ccc(F)c(OC(F)F)c4)cc32)c1 [Example 31, 3-[[6-[3-(Difluoromethoxy)-4-fluoro-phenyl]pyrazolo[4,3-b]pyridin-1-yl]methyl]-5-fluoro-benzonitrile]
33 | 6.45 | N#Cc1ccc(Cn2ncc3ncc(-c4ccc(F)c(C(F)F)c4)cc32)s1 [Example 34, 5-((6-(3-(Difluoromethyl)-4-fluorophenyl)-1H-pyrazolo[4,3-b]pyridin-1-yl)methyl)thiophene-2-carbonitrile]
